Results from patent US20120165319A1, “INHIBITORS OF INTERLEUKIN-1 BETA CONVERTING ENZYME” (VERTEX PHARMACEUTICALS INCORPORATED, priority 1995, published 2012).

Biological target: T1, ICE (Homo sapiens, UniProt P29466)
T1 sequence (P29466 120-297 limits assumed): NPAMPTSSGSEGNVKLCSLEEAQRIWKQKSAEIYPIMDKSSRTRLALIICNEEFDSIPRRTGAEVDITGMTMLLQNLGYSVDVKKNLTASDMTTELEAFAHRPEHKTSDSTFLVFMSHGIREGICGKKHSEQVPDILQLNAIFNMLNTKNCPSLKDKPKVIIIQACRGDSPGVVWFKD
T1 sequence (P29466 317-404 limits assumed): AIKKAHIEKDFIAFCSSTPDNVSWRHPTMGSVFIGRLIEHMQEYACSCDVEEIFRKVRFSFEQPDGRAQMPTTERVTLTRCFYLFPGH
Test: Enzyme assay with UV-visible substrate (visible ICE assay, Succinyl-Tyr-Val-Ala-Asp-pNitroanilide)
Format: biochemical
Procedure: 1. Enzyme Assay with Uv-Visible Substrate
This assay is run using an Succinyl-Tyr-Val-Ala-Asp-pNitroanilide substrate. Synthesis of analogous substrates is described by L. A. Reiter (Int. J. Peptide Protein Res. 12, 87-96 (1994)). The assay mixture contains:
The visible ICE assay is run in a 96-well microtiter plate. Buffer, ICE and DMSO (if inhibitor is present) are added to the wells in the order listed. The components are left to incubate at room temperature for 15 minutes starting at the time that all components are present in all wells. The microtiter plate reader is set to incubate at 37° C. After the 15 minute incubation, substrate is added directly to the wells and the reaction is monitored by following the release of the chromophore (pNA) at 405-603 nm at 37° C. for 20 minutes. A linear fit of the data is performed and the rate is calculated in mOD/min. DMSO is only present during experiments involving inhibitors, buffer is used to make up the volume to 100 μl in the other experiments.
For determination of enzyme inhibition constants (Ki) or the mode of inhibition (competitive, uncompetitive or noncompetitive), the rate data determined in the enzyme assays at varying inhibitor concentrations are computer-fit to standard enzyme kinetic equations (see I. H. Segel, Enzyme Kinetics, Wiley-Interscience, 1975).

Row | Structure (SMILES) | Ki (Table 17) [nM] | Ki (Table 5) [nM] | further results
1 | O=C[C@H](CC(=O)O)NC(=O)CN1C(=O)[C@@H](NC(=O)c2nccc3ccccc23)CN(C(=O)CO)c2cc(Cl)ccc21 [Compound 696-2, (3S)-3-[(3S)-2-Oxo-3-isoquinolin-1-oylamino-5-hydroxyacetyl-2,3,4,5-tetrahydro-7-chloro-1H-1,5-benzodiazepine-1-acetylamino]-4-oxobutyric acid] |  |  | Ki (Table 27): 0.5 nM
2 | CC(=O)NCC(=O)N1C[C@H](NC(=O)c2cccc3ccccc23)C(=O)N(CC(=O)N[C@H](C=O)CC(=O)O)c2ccccc21 [Compound 645, (3S)-3-[(3S)-2-Oxo-3-(1-naphthoyl)amino-5-(2-acetamido)acetyl-2,3,4,5-tetrahydro-1H-1,5-benzodiazepine-1-acetylamino]-4-oxo-butyric acid] | 150 |  | 
3 | CC(=O)OC(C)(C)C(=O)N1C[C@H](NC(=O)c2cc(C)c(O)c(C)c2)C(=O)N(CC(=O)N[C@H](C=O)CC(=O)O)c2ccccc21 [Compound 728] |  |  | Ki (Table 27): 300 nM
4 | O=C[C@H](CC(=O)O)NC(=O)[C@@H]1CCCN2C(=O)CC[C@H](NC(=O)Cc3ccccc3)C(=O)N12 [Compound 495] |  | 43 | 
5 | CC(=O)N1C[C@H](NC(=O)C(=O)Nc2ccc(Cl)cc2)C(=O)N(CC(=O)N[C@H](C=O)CC(=O)O)c2ccccc21 [Compound 710] | 110 |  | 
6 | O=C[C@H](CC(=O)O)NC(=O)[C@@H]1CCCN2C(=O)CCN(NC(=O)CCc3ccc4c(c3)OCO4)C(=O)N12 [Compound 1114] | 125 |  | 
7 | CC(=O)N1C[C@H](NC(=O)/C=C/c2ccc(Cl)c(Cl)c2)C(=O)N(CC(=O)N[C@H](C=O)CC(=O)O)c2ccccc21 [Compound 700] | 275 |  | 
8 | CC(=O)N1C[C@H](NS(=O)(=O)c2ccccc2)C(=O)N(CC(=O)N[C@H](C=O)CC(=O)O)c2ccccc21 [Compound 629] |  | 230 | 
9 | O=C[C@H](CC(=O)O)NC(=O)[C@@H]1CCCN2C(=O)CCN(NC(=O)C(=O)c3ccc4c(c3)OCO4)C(=O)N12 [Compound 1109] | 80 |  | 
10 | CC(=O)c1ccc(C(=O)N[C@H]2CCC(=O)N3CCC[C@@H](C(=O)N[C@H](C=O)CC(=O)O)N3C2=O)cc1 [Compound 474] |  | 85 | 
11 | COc1ccc(C(=O)N[C@H]2CCC(=O)N3CCC[C@@H](C(=O)N[C@H](/C=N/OCc4ccccc4)CC(=O)O)N3C2=O)cc1 [Compound 308d, [3S(1S,9S)3-(9-(4-Methoxybenzoyl)amino-6,10-dioxo-1,2,3,4,7,8,9,10-octahydro-6H-pyridazino[1,2-a][1,2]diazepine-1-carboxamido)-amino]-4-oxobutanoic acid, O-benzyl oxime] | 3000 |  | 
12 | CC(=O)N1C[C@H](NC(=O)c2cccc(O)c2C)C(=O)N(CC(=O)N[C@H](C=O)CC(=O)O)c2ccccc21 [Compound 626] |  | 260 | 
13 | CC(=O)N1C[C@H](NC(=O)O[C@H]2CCOC2)C(=O)N(CC(=O)N[C@H](C=O)CC(=O)O)c2ccccc21 [Compound 634] |  | 1400 | 
14 | CC(=O)N1C[C@H](NC(=O)CCc2ccc3c(c2)OCO3)C(=O)N(CC(=O)N[C@H](C=O)CC(=O)O)c2ccccc21 [Compound 707] | 180 |  | 
15 | O=C[C@H](CC(=O)O)NC(=O)[C@@H]1CCCN2C(=O)CC[C@H](NC(=O)/C=C/c3ccncc3)C(=O)N12 [Compound 472] |  | 140 | 
16 | O=C[C@H](CC(=O)O)NC(=O)CN1C(=O)[C@@H](NC(=O)c2nccc3ccccc23)CN(C(=O)CO)c2cc(F)ccc21 [Compound 696-1, (3S)-3-[(3S)-2-oxo-3-isoquinolin-1-oylamino-5-hydroxyacetyl-2,3,4,5-tetrahydro-7-fluoro-1H-1,5-benzodiazepine-1-acetylamino]-4-oxobutyric acid] |  |  | Ki (Table 27): 0.5 nM
17 | O=C[C@H](CC(=O)O)NC(=O)[C@@H]1CCCN2C(=O)CCN(NC(=O)/C=C/c3ccc4c(c3)OCO4)C(=O)N12 [Compound 1116] | 215 |  | 
18 | CC(=O)N1C[C@H](NC(=O)c2ccc3ccccc3n2)C(=O)N(CC(=O)N[C@H](C=O)CC(=O)O)c2ccccc21 [Compound 619] |  | 300 | 
19 | C[S+](CC(=O)[C@H](CC(=O)O)NC(=O)[C@@H]1CCCN2C(=O)CC[C@H](NC(=O)c3ccccc3)C(=O)N12)Cc1ccccc1Cl (some centres unmarked) [Compound 281] |  | 50 | 
20 | COc1ccc(C(=O)C(=O)NN2CCC(=O)N3CCC[C@@H](C(=O)N[C@H](C=O)CC(=O)O)N3C2=O)cc1 [Compound 1110] | 45 |  | 
21 | CC(=O)N1C[C@H](NC(=O)C(=O)c2cccs2)C(=O)N(CC(=O)N[C@H](C=O)CC(=O)O)c2ccccc21 [Compound 701] | 90 |  | 
22 | O=C[C@H](CC(=O)O)NC(=O)[C@@H]1CCCN2C(=O)CCN(NC(=O)CC3CCCCC3)C(=O)N12 [Compound 1118] | 380 |  | 

Row | Structure (SMILES) | Ki (Table 17) [nM] | Ki (Table 5) [nM] | further results
23 | O=C[C@H](CC(=O)O)NC(=O)[C@@H]1CCCN2C(=O)CC[C@H](NC(=O)c3ccc(O)c(CN4CCOCC4)c3)C(=O)N12 [Compound 477] |  | 60 | 
24 | COCC(=O)N1C[C@H](NC(=O)c2nccc3ccccc23)C(=O)N(CC(=O)N[C@H](C=O)CC(=O)O)c2ccccc21 [Compound 699, (3S)-3-[(3S)-2-Oxo-3-isoquinolin-1-oylamino-5-methoxyacetyl-2,3,4,5-tetrahydro-1H-1,5-benzodiazepine-1-acetylamino]-4-oxobutyric acid] |  |  | Ki (Table 27): 1.1 nM
25 | CC(=O)O[C@@H](C)C(=O)N1C[C@H](NC(=O)c2cc(C)c(O)c(C)c2)C(=O)N(CC(=O)N[C@H](C=O)CC(=O)O)c2ccccc21 [Compound 726] |  |  | Ki (Table 27): 300 nM
26 | Cc1cc(C)c(CC(=O)NN2CCC(=O)N3CCC[C@@H](C(=O)N[C@H](C=O)CC(=O)O)N3C2=O)c(C)c1 [Compound 1122] | 400 |  | 
27 | CC(=O)N1C[C@H](NC(=O)/C=C/c2ccccc2)C(=O)N(CC(=O)N[C@H](C=O)CC(=O)O)c2ccccc21 [Compound 632] |  | 148 | 
28 | O=C[C@H](CC(=O)O)NC(=O)CN1C(=O)[C@@H](NC(=O)c2ccccc2)CN(C(=O)OC2CCOC2)c2ccccc21 (some centres unmarked) [Compound 605q] |  | 1000 | 
29 | COc1cc(C(=O)C(=O)NN2CCC(=O)N3CCC[C@@H](C(=O)N[C@H](C=O)CC(=O)O)N3C2=O)cc(OC)c1OC [Compound 1124] | 270 |  | 
30 | CC(=O)N1C[C@H](NC(=O)c2sc(C)nc2C)C(=O)N(CC(=O)N[C@H](C=O)CC(=O)O)c2ccccc21 [Compound 625] |  | 105 | 
31 | COCC(=O)N1C[C@H](NC(=O)c2cc(C)c(O)c(C)c2)C(=O)N(CC(=O)N[C@H](/C=N/OCc2c(Cl)cccc2Cl)CC(=O)O)c2ccccc21 [Compound 688c, (3S)-3-[(3S)-2-Oxo-3-(3,5-dimethyl-4-hydroxybenzoyl)amino-5-methoxyacetyl-2,3,4,5-tetrahydro-1H-1,5-benzodiazepine-1-acetylamino]-4-oxobutyric acid, O-2,6-dichlorobenzyl oxime] |  |  | Ki (Table 27): 200 nM
32 | CC(=O)N1C[C@H](NC(=O)Cc2ccccc2)C(=O)N(CC(=O)N[C@H](C=O)CC(=O)O)c2ccccc21 [Compound 630] |  | 270 | 
33 | COC(=O)N1C[C@H](NC(=O)c2ccc(O)c(Cl)c2)C(=O)N(CC(=O)N[C@H](C=O)CC(=O)O)c2ccccc21 [Compound 720] |  |  | Ki (Table 27): 2.7 nM
34 | CC(=O)N1C[C@H](NC(=O)/C=C/c2ccc3c(c2)OCO3)C(=O)N(CC(=O)N[C@H](C=O)CC(=O)O)c2ccccc21 [Compound 708] | 140 |  | 
35 | CC(=O)N1C[C@H](NC(=O)C(=O)c2ccco2)C(=O)N(CC(=O)N[C@H](C=O)CC(=O)O)c2ccccc21 [Compound 711] | 175 |  | 
36 | CC(=O)N1C[C@H](NC(=O)c2ccc3cc(OC(=O)c4ccc5cc(O)ccc5c4)ccc3c2)C(=O)N(CC(=O)N[C@H](C=O)CC(=O)O)c2ccccc21 [Compound 623] |  | 9 | 
37 | CO/N=C/[C@H](CC(=O)O)NC(=O)[C@@H]1CCCN2C(=O)CC[C@H](NC(=O)c3ccc(OC)cc3)C(=O)N12 [Compound 308c, [3S(1S,9S)3-(9-(4-Methoxybenzoyl)amino-6,10-dioxo-1,2,3,4,7,8,9,10-octahydro-6H-pyridazino[1,2-a][1,2]diazepine-1-carboxamido)-amino]-4-oxobutanoic acid, O-methyl oxime] | 3000 |  | 
38 | CC(=O)N1C[C@H](NS(=O)(=O)Cc2ccccc2)C(=O)N(CC(=O)N[C@H](C=O)CC(=O)O)c2ccccc21 [Compound 631] |  | 805 | 
39 | O=C[C@H](CC(=O)O)NC(=O)[C@@H]1CCCN2C(=O)CCN(NC(=O)CCc3ccc(Cl)cc3)C(=O)N12 [Compound 1113] | 290 |  | 
40 | N[C@H]1CCC(=O)N2CCC[C@@H](C(=O)N[C@H](C=O)CC(=O)O)N2C1=O [Compound 429] |  | 7000 | 
41 | O=C[C@H](CC(=O)O)NC(=O)[C@@H]1CCCN2C(=O)CC[C@H](NC(=O)c3cccc(F)c3)C(=O)N12 [Compound 462] |  | 40 | 
42 | O=C[C@H](CC(=O)O)NC(=O)[C@@H]1CCCN2C(=O)CCN(NC(=O)CCC3CCCCC3)C(=O)N12 [Compound 1119] | 515 |  | 
43 | CC(=O)N1C[C@H](NC(=O)c2ccsc2)C(=O)N(CC(=O)N[C@H](C=O)CC(=O)O)c2ccccc21 [Compound 624] |  | 300 | 
44 | CN(C)S(=O)(=O)N[C@H]1CCC(=O)N2CCC[C@@H](C(=O)N[C@H](C=O)CC(=O)O)N2C1=O [Compound 428] |  | 280 | 
